For orientation: pIC50 means −log10 of the IC50, conventionally taken in molar units. A lower pIC50 goes with a large IC50.

pIC50: −log10 of the molar value.

The target of this test is AT2 receptor (Homo sapiens (Human), UniProt P50052). The test is described as follows: AT2 receptor binding ([125I]-CGP42112A radioligand, HEK293/AT2 receptor membranes). The conditions noted are these: HEK293/AT2 receptor transient transfected cell membranes, RT 1.5 hrs. On the procedure: • 1. Trypsin-EDTA (for preparation of 100 mL) • Trypsin 0.25 g • 2% EDTA 2 mL • PBS 98 mL • Dissolve trypsin in 2% EDTA and PBS completely; sterilize the solution by passing through a […] membrane filter; store at 4° C. • 2. DMEM medium (for preparation of 1 L) • The powder was dissolved into 950 mL of distilled water with gentle stirring until the solution becomes clear. • Add NaHCO3 1.176 g for DMEM medium. • Adjust pH of medium to 0.2-0.3 below final working pH using 1 M NaOH or 1 M HCl. Add slowly with stirring. • Dilute to 1 liter with ddH2O. • Sterilize the medium immediately by filtration. • Store at 4° C. • 3. TE buffer • 20 mM Tris-HCl, pH 7.4, • 5 mM EDTA • 4. Binding Assay Buffer • 50 mM Hepes, pH 7.4 • 5 mM MgCl2 • 1 mM CaCl2 • 0.2% BSA • 5. Wash Buffer • 50 mM Hepes, pH 7.4 Procedures for HEK293/AT2 Receptor Transient Cell Transfection • Cells were plated into 150 mm dish at 50% density for transient transfection. Cells were ready for transfection after overnight incubation (the confluence reaches around 80%). • 75 μL Lipofectamine™2000 diluted in 6.25 mL OptiMEM I Reduced Serum Medium, was mixed gently, and incubated at room temperature for 5 minutes. 50 μg expression plasmid DNA diluted in 6.25 mL OptiMEM I Reduced Serum Medium without serum was mixed gently. • After the 5 minute incubation, the diluted DNA was combined with the diluted Lipofectamine™2000 (total volume is 12.5 mL). The mixture was mixed gently and incubated for 30 minutes at room temperature to allow the DNA-Lipofectamine™2000 complexes to form. • The 12.5 mL DNA-Lipofectamine™2000 complexes were added into the 150 mm dish and mixed gently by rocking the dish back and forth. • The cells were incubated at 37° C. with 5% CO2 for 48 hours. • Cells were collected and stored frozen at −80° C. Procedures for HEK293/AT2 Receptor Cell Membrane Preparation • Frozen HEK293/AT2 receptor (transient transfected) cells were homogenized in ice cold TE buffer for 10 s. • The homogenate was centrifuged at 25,000 g for 30 minutes. • The pellet was resuspended in ice cold tissue buffer. • Protein concentrations were determined using Bradford assay method with BSA as standard. • The membrane protein was frozen under −80° C. Compound Preparation
AT2 receptor, sequence (P50052 whole entry, species assumed): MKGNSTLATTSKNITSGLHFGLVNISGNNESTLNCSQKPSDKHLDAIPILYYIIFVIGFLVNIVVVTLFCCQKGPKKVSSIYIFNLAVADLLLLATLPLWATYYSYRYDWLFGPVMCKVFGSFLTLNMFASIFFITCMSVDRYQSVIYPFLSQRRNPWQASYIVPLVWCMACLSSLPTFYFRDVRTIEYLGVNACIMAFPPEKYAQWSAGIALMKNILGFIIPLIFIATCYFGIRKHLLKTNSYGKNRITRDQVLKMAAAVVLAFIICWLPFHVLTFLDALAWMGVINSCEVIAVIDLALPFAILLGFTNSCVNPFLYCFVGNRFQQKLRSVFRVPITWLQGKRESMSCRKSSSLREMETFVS
Solutions of all compounds were prepared by microplate liquid handling equipment such as Janus or Precision 2000. Compounds, dissolved in DMSO were stored in a Freezer. Compounds were prepared from 30 mM in 100% DMSO.
Step 1: Dose Plate Preparation (96 Well Plate)
• Add the 3 μL [30 mM] compound stock to column 1 on the plate. • Add 15 μL of 100% DMSO to column 1. • Add 10.81 μL of 100% DMSO to column 2-12. • Transfer 5 μL from column 1 into column 2 (half log dilution). • Transfer 5 μL from column 2 into column 3 (half log dilution). • Transfer 5 μL from column 3 into column 4 (half log dilution). • Transfer 5 μL from column 4 into column 5 (half log dilution). • Transfer 5 μL from column 5 into column 6 (half log dilution). • Transfer 5 μL from column 6 into column 7 (half log dilution). • Transfer 5 μL from column 7 into column 8 (half log dilution). • Transfer 5 μL from column 8 into column 9 (half log dilution). • Transfer 5 μL from column 9 into column 10 (half log dilution) • Transfer 5 μL from column 10 into column 11 (half log dilution) • Transfer 5 μL from column 11 into column 12 (half log dilution). All the compounds were diluted using Precision 2000 microplate liquid handling equipment. The top concentration of compound was 5 mM with 100% DMSO. Step 2: Working Plate Preparation (96 Well Plate) • Compounds were diluted 50-fold with buffer. • 49 μL buffer was added to the well of 96 well plate. • 1 μL compound solution from dose plate was transferred to the corresponding well of working plate. • The top concentration of compound was 100 μM with 2% DMSO. Step 3: Assay Plate Preparation (96 Well Plate)
15 μL of compound solution was transferred from each well of working plate to the well of assay plate by Janus.
Consider `O=C(O)[C@@H]1Cc2c(c3ccccc3n2Cc2ccccc2)CN1C(=O)C(c1ccccc1)c1ccccc1` [Compound 1], for which the pIC50 is 6.68. `O=C(O)[C@@H]1Cc2c(ccc3c2Oc2ccccc2O3)CN1C(=O)C(c1ccccc1)c1ccccc1` [Compound 9, (S)-3-(2,2-diphenylacetyl)-1,2,3,4-tetrahydrobenzo[5,6][1,4]dioxino[2,3-f]isoquinoline-2-carboxylic acid] showed a negative logarithm of the IC50 (pIC50) of 6.80. As for `O=C(O)[C@@H]1CC(OCc2ccccc2)CCN1C(=O)C(c1ccccc1)c1ccccc1` (stereo partly drawn) [Compound 26, (2S)-4-(benzyloxy)-1-(2,2-diphenylacetyl)piperidine-2-carboxylic acid], the negative-log IC50 (pIC50) was 6.66. With `CN(CCCc1ccccc1)[C@@H]1CCN(C(=O)C(c2ccccc2)c2ccccc2)[C@H](C(=O)O)C1` [Compound 31, (2S,4R)-1-(2,2-diphenylacetyl)-4-(methyl(phenylpropyl)amino)piperidine-2-carboxylic acid] the figure was 5.29; with `CN(CC#Cc1ccccc1)[C@@H]1CCN(C(=O)C(c2ccccc2)c2ccccc2)[C@H](C(=O)O)C1` [Compound 32], 6.97; with `CN(CC#Cc1ccccc1)[C@H]1CCN(C(=O)C(c2ccccc2)c2ccccc2)[C@H](C(=O)O)C1` [Compound 33, (2S,4S)-1-(2,2-diphenylacetyl)-4-(methyl(3-phenylprop-2-yn-1yl)amino)piperidine-2-carboxylic acid], 5.57. With `CN(CCc1ccccc1)[C@@H]1CCN(C(=O)C(c2ccccc2)c2ccccc2)[C@H](C(=O)O)C1` [Compound 34, (2S,4R)-1-(2,2-diphenylacetyl)-4-(methyl(3-phenethyl)amino)piperidine-2-carboxylic acid] the figure was 6.04; with `CN(CCc1ccccc1)[C@H]1CCN(C(=O)C(c2ccccc2)c2ccccc2)[C@H](C(=O)O)C1` [Compound 35, (2S,4S)-1-(2,2-diphenylacetyl)-4-(methyl(3-phenethyl)amino)piperidine-2-carboxylic acid], 7.00; with `CN(Cc1ccccc1)[C@@H]1CCN(C(=O)C(c2ccccc2)c2ccccc2)[C@H](C(=O)O)C1` [Compound 38, (2S,4R)-4-(benzyl(methyl)amino)-1-(2,2-diphenylacetyl)piperidine-2-carboxylic acid], 6.07. Then `CN(Cc1ccccc1)[C@H]1CCN(C(=O)C(c2ccccc2)c2ccccc2)[C@H](C(=O)O)C1` [Compound 39, (2S,4S)-4-(benzyl(methyl)amino)-1-(2,2-diphenylacetyl)piperidine-2-carboxylic acid], with 6.19. For the compound `O=C(O)[C@@H]1C[C@H](OCC#Cc2ccccc2)CCN1C(=O)C(c1ccccc1)c1ccccc1` [Compound 40, (2S,4R)-1-(2,2-diphenylacetyl)-4-((3-phenylprop-2-yn-yl)oxy)piperidine-2-carboxylic acid], the negative-log IC50 (pIC50) was 6.64. For the compound `O=C(O)[C@@H]1C[C@H](OCCCc2ccccc2)CCN1C(=O)C(c1ccccc1)c1ccccc1` [Compound 41, (2S,4R)-1-(2,2-diphenylacetyl)-4-((3-phenylpropyl)oxy)piperidine-2-carboxylic acid], the pIC50 is 7.00.

Compound `CC#CCN(C)[C@@H]1CCN(C(=O)C(c2ccccc2)c2ccccc2)[C@H](C(=O)O)C1` [Compound 42] gave a pIC50 of 6.07. Then `CC#CCN(C)[C@H]1CCN(C(=O)C(c2ccccc2)c2ccccc2)[C@H](C(=O)O)C1` [Compound 43], with 5.69; and `CN(CC#Cc1ccc(F)cc1)[C@@H]1CCN(C(=O)C(c2ccccc2)c2ccccc2)[C@H](C(=O)O)C1` [Compound 46], with 7.25; and `CN(CC#Cc1ccc(F)cc1)[C@H]1CCN(C(=O)C(c2ccccc2)c2ccccc2)[C@H](C(=O)O)C1` [Compound 47, (2S,4S)-1-(2,2-diphenylacetyl)-4-((3-(4-fluorophenyl)prop-2-yn-1-yl)(methyl)amino)piperidine-2-carboxylic acid], with 5.98. Then `CN(CC#CC(C)(C)C)[C@@H]1CCN(C(=O)C(c2ccccc2)c2ccccc2)[C@H](C(=O)O)C1` [Compound 54, (2S,4R)-4-((4,4-dimethylpent-2-yn-1-yl)(methyl)amino)-1-(2,2-diphenylacetyl)piperidine-2-carboxylic acid], with 7.47; and `O=C(O)[C@@H]1C[C@H](N2CCC[C@H](c3ccccc3)C2)CCN1C(=O)C(c1ccccc1)c1ccccc1` [Compound 55, (2′S,3R,4′R)-1′-(2,2-diphenylacetyl)-3-phenyl-[1,4′-bipiperidine]-2′-carboxylic acid], with 6.53. With `O=C(O)[C@@H]1C[C@@H](N2CCC[C@H](c3ccccc3)C2)CCN1C(=O)C(c1ccccc1)c1ccccc1` [Compound 56, (2′S,3R,4′R)-1-(2,2-diphenylacetyl)-3-phenyl-[1,4′-bipiperidine]-2′-carboxylic acid] the figure was 6.96; with `O=C(O)[C@@H]1C[C@H](N2CCC[C@@H](c3ccccc3)C2)CCN1C(=O)C(c1ccccc1)c1ccccc1` [Compound 57, (2′S,3S,4′R)-1′-(2,2-diphenylacetyl)-3-phenyl-[1,4′-bipiperidine]-2′-carboxylic acid], 5.84; with `O=C(O)[C@@H]1C[C@@H](N2CCC[C@@H](c3ccccc3)C2)CCN1C(=O)C(c1ccccc1)c1ccccc1` [Compound 58, (2′S,3S,4′S)-1′-(2,2-diphenylacetyl)-3-phenyl-[1,4′-bipiperidine]-2′-carboxylic acid], 6.77.

These data come from patent US9624234B2, “Heterocyclic compounds and methods for their use” (Novartis AG, priority 2012, dated 2017).
